Reference: patent US5935824A, “Protein expression system” (Technologene, Inc., priority 1996, dated 1999)
Residues, ends and D or L forms follow the SMILES beside them. *: point of attachment. Cbz = O=C(OCc1ccccc1)*

Target: T1, carboxypeptidase Y (CPD-Y) immobilized to Acti-Disk (Saccharomyces cerevisiae, UniProt P00729)
T1 construct: purchased Sigma
T1 sequence (P00729 112-532): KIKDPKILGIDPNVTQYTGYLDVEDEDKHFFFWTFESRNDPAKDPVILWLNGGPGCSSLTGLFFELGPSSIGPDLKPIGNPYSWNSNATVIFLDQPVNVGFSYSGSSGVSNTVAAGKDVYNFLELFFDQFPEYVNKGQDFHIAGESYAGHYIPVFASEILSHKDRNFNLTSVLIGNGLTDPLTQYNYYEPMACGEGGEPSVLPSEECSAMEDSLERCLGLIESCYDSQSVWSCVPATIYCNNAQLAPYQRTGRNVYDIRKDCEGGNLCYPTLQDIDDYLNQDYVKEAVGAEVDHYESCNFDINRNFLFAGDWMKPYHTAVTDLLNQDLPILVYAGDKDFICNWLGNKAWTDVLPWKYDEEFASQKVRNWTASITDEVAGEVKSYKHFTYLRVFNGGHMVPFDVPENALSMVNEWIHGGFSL
Experiment: Flow digestion of N-CBZ-peptides through CPD-Y Acti Disk, ninhydrin assays
Type: biochemical, yeast
Experimental: The reported Km values for CPD-Y have been generated using extremely low enzyme concentration compared to substrate concentration. The value for Km represents the concentration of substrate that will produce 1/2 the maximum velocity for the initial reaction rates. During the testing of the immobilized CPD-Y enzyme disks with various dipeptide substrates, the maximum flow rate that can be achieved without any substantial increase in the pressure of the solution, is 4 ml/min. At this flow rate, the substrate remains within the immobilized enzyme matrix for 1.74 seconds. This value is determined by dividing the internal porous volume of the matrix to which the enzyme is immobilized (115 μL/4000 μL, min^-1). Due to the high concentration of enzyme (565 μM) within the limited volume of the immobilization matrix (115 μl) a very high percentage of the substrate was hydrolyzed even at these short incubation times which prevents the accurate determination of actual Km values for the individual substrates.
Standard ninhydrin assay: Hydrolysis of the non-proline containing N-CBZ-dipeptides was determined by assaying the amount of free amino acid released by a colorometric ninhydrin reaction at a pH greater than 5.2. One gram of ninhydrin was dissolved in 50 ml ethylene glycol monomethyl ether containing 0.03% ascorbic acid. This ninhydrin solution was made fresh daily. A 0.4 M Citrate buffer, pH 5.2 was made by adjusting the pH of ACS grade citric acid with NaOH. Two hundred microliter samples at pH greater than 5.2 were mixed with an equal volume of ninhydrin reagent and incubated at 100° C. for 20 minutes. When 200 μl samples below pH 5.2 were to be assayed, 100 μl of 0.4 M Citrate buffer was included prior to heating the sample to 100° C. Samples were then cooled to room temperature and 600 μl of 60% ethanol was added as the diluent and the absorbance was read at 570 nm on a Beckman DU 7000 spectrophotometer.
Proline ninhydrin assay: Hydrolysis of proline-containing N-CBZ-dipeptides were measured with a modified version of the assay described by Magne and Larher [Anal. Biochem., 200:115 (1982)]. Briefly a ninhydrin reagent containing 2% ninhydrin prepared in glacial acetic acid:water 60:40 (v/v) was prepared. Five hundred microliter samples were combined with 500 μl glacial acetic acid and 500 μl ninhydrin reagent was added. The sample was subsequently boiled for one hour. One milliliter of analytical grade toluene was then used to extract the chromophore and the absorbance was read at 520 nm.
Concentrations of N-CBZ-Ala-Pro ranging from 4 mM to 100 μM (100 mM citrate, 100 mM NaCl, pH 5.75) were passed through a CPD-Y Acti Disk at a flow rate of 2.0 ml/min. Reaction rates were determined by assaying the appropriate dilutions of the various substrates using the above described proline ninhydrin assay specific of free proline to obtain […] readings below 1.5.
N-CBZ-Ala-Pro (dissolved in 100 mM citrate, 100 mM NaCl, pH 5.75) at a concentration of 200 μM, was passed through the same CPD-Y Acti Disk at flow rates ranging from 2 ml/min to 175 μl/ min. Five milliliters of each specific flow rate were collected and assayed by the proline ninhydrin assay in order to determine the relative percentage of substrate that was hydrolyzed using the various flow rates. In order to characterize the amount of substrate hydrolyzed per unit of time, flow rates are converted to amount of time that the substrate is within the immobilized enzyme matrix (Acti Disk). The amount of time the substrate is within the immobilized enzyme matrix at a given flow rate is shown below in Table 6.
The first order rate constant determined for the N-CBZ-Ala-Pro substrate is applicable only as a reference for comparison to other N-CBZ-dipeptide first order rate constants. N-CBZ-Phe-Ala is the substrate used by Sigma to characterize the activity of CPD-Y at 100 units per milligram, 1 unit can hydrolyze 1 μmol of N-CBZ-Phe-Ala per minute. […]

[1] = flow rate 2 ml/min, 3.45 seconds, pH 5.75, ~25° C.
[2] = 200 μM substrate, 2 × 2 ml/min (two passes)
[3] = 200 μM substrate, flow rate 0.25 ml/min, one pass
[4] = 200 μM substrate, flow rate 1.0 ml/min, one pass
[5] = 200 μM substrate, flow rate 2.0 ml/min, one pass
[6] = second flow at 2.0 ml/min, 3.45 seconds
[7] = 200 μM substrate, varied flow rates

O=C(O)[C@H](Cc1ccccc1)NC(=O)[C@@H]1CCCN1C(=O)OCc1ccccc1 [N-CBZ-Pro-Phe] (Cbz-Pro-Phe-OH)
K^1 min^-1 (first order reaction constant) [1]: 1.480 min⁻¹ | Log S/S-P [1]: 0.037

CC(C)C[C@H](NC(=O)[C@@H]1CCCN1C(=O)CNC(=O)OCc1ccccc1)C(=O)N[C@@H](C)C(=O)N1CCC[C@H]1C(=O)O [N-CBZ-Gly-Pro-Leu-Ala-Pro] (Cbz-GPLAP-OH)
Concentration of amino acids released, standard ninhydrin assay [2]: 353.4 µM | Concentration of proline released, proline ninhydrin assay [2]: 195.6 µM | Concentration of amino acids released, standard ninhydrin assay [3]: 384.0 µM | Concentration of proline released, proline ninhydrin assay [3]: 212.5 µM | Concentration of amino acids released, standard ninhydrin assay [4]: 315.9 µM | Concentration of proline released, proline ninhydrin assay [4]: 196.5 µM | Concentration of amino acids released, standard ninhydrin assay [5]: 265.7 µM | Concentration of proline released, proline ninhydrin assay [5]: 197.0 µM | Kinetic constant k for the remaining Pro-Leu bond [6]: 18.39 | Product released in second flow [6]: 87.7 µM

O=C(O)CC[C@H](NC(=O)OCc1ccccc1)C(=O)N[C@@H](Cc1ccc(O)cc1)C(=O)O [N-CBZ-Glu-Tyr] (Cbz-Glu-Tyr-OH)
K^1 min^-1 (first order reaction constant) [1]: 24.24 min⁻¹ | Log S/S-P [1]: 0.606

C[C@H](NC(=O)[C@H](Cc1ccccc1)NC(=O)OCc1ccccc1)C(=O)O [N-CBZ-Phe-Ala]
Concentration of released alanine (20 mM substrate, flow rate 4 ml/minute): 10.49 mM | Rate of digestion (20 mM substrate, flow rate 4 ml/minute, pH 5.75): 41.96 µmol/min

O=C(NCC(=O)N1CCC[C@H]1C(=O)O)OCc1ccccc1 [N-CBZ-Gly-Pro] (Cbz-Gly-Pro-OH)
K^1 min^-1 (first order reaction constant) [1]: 0.160 min⁻¹ | Log S/S-P [1]: 0.004

CC(C)C[C@H](NC(=O)[C@H](C)NC(=O)OCc1ccccc1)C(=O)O [N-CBZ-Ala-Leu] (Cbz-Ala-Leu-OH)
K^1 min^-1 (first order reaction constant) [1]: 27.52 min⁻¹ | Log S/S-P [1]: 0.688

C[C@H](NC(=O)OCc1ccccc1)C(=O)N1CCC[C@H]1C(=O)O [N-CBZ-Ala-Pro] (Cbz-Ala-Pro-OH)
First-order rate constant (200 μM substrate, converted from seconds^-1): 3.84 min⁻¹ | Log S/S-P (200 μM substrate, flow rate 175 μl/min, 36.4 seconds): 1.541 | Log S/S-P (200 μM substrate, flow rate 350 μl/min, 19.7 seconds): 1.022 | Log S/S-P (200 μM substrate, flow rate 1000 μl/min, 6.90 seconds): .672 | Log S/S-P (200 μM substrate, flow rate 2000 ml/min (so in the source), 3.45 seconds): .560 | First-order rate constant [7]: 4.14 min⁻¹ | Slope of log [S]/[S]-[P] over seconds [7]: 0.030 | Log S/S-P (500 μM substrate, 1 pass at 2000 μl/min, 3.45 sec): .614 | Log S/S-P (500 μM substrate, 2 passes at 2000 μl/min, 6.90 sec): 1.236 | Log S/S-P (500 μM substrate, 3 passes at 2000 μl/min, 10.35 sec): 1.870 | Slope of log [S]/[S]-[P] versus seconds (500 μM substrate, repeated passes at 2000 μl/min): 0.199 | K^1 min^-1 (first order reaction constant) [1]: 22.40 min⁻¹ | Log S/S-P [1]: 0.560 | Velocity (substrate concentration 100 μM, flow rate 2.0 ml/min, pH 5.75): 170 nM/min | Velocity (substrate concentration 200 μM, flow rate 2.0 ml/min, pH 5.75): 344 nM/min | Velocity (substrate concentration 300 μM, flow rate 2.0 ml/min, pH 5.75): 503 nM/min | Velocity (substrate concentration 500 μM, flow rate 2.0 ml/min, pH 5.75): 846 nM/min | Velocity (substrate concentration 1000 μM, flow rate 2.0 ml/min, pH 5.75): 1684 nM/min
